Key:
[1] = Halogen residuals (total and free) measured using DPD reagent after blending NaOCl with urea/NaOH; assay type: physicochemical
Protocol: We blended 5.0 mL NaOCl (3% as Cl2 in water) with 5.0 mL of an aqueous solution of urea and sodium hydroxide (0.5M urea in 5% NaOH). To achieve a 2:1 molar ratio of chlorine to urea we blended 5.0 mL NaOCl (3% as Cl2 in water) with 5.0 mL of an aqueous solution of urea and sodium hydroxide (0.25M urea in 5% NaOH). Halogen residuals were measured using DPD reagent, and were recorded 3 minutes after mixing with the reagent.
Because of the higher yield, less halogen is required to achieve the desired anti-microbial effect under these test conditions. […] The advantages of increased yield and improved anti-microbial activity are shown in Example 2.

[2] = tested on: Sphaerotilus natans (ATCC 1529); assay: Mean Biocidal Concentration for 100% kill of filamentous test isolate in buffered water (pH 7.2); assay type: cell-based
Protocol: Two biocide solutions were evaluated and included NaOCl and NaOCl mixed with urea at a 1:1 molar ratio. The unstabilized NaOCl solution was 3% as Cl2 in water. To prepare the stabilized chlorine solution we blended 5.0 mL NaOCl (3% as Cl2 in water) with 5.0 mL of an aqueous solution of urea and sodium hydroxide (0.5M urea in 5% NaOH). In the case of the stabilized chlorine the NaOCl and urea were mixed prior to introduction to buffered water (pH 7.2) inoculated with approximately 1×10^5 bacterial filaments/mL of the filamentous test isolate. The filamentous test isolate used in this evaluation was Sphaerotilus natans (ATCC 1529). The Mean Biocidal Concentration was identified as the test chlorine concentration in ppm of total chlorine (Cl2) required for 100% kill of the filamentous test isolate.

[3] = tested on: bacteria native to the process water sample; assay: Bacterial density in paper process water (coated groundwood mill, pH 7.9) dosed with halogen, with re-challenge; assay type: cell-based
Protocol: The unstabilized bleach solution was 3% as Cl2 in water. To prepare the stabilized chlorine solution we blended 5.0 mL NaOCl (3% as Cl2 in water) with 5.0 mL of an aqueous solution of urea and sodium hydroxide (0.5M urea in 5% NaOH). We then blended 5.0 mL NaOCl (3% as Cl2 in water) with 5.0 mL of an aqueous solution of urea and sodium hydroxide (0.25M urea in 5% NaOH). This yielded a 2:1 molar ratio of chlorine to urea.
Paper process water was collected from a mill in the Northeastern US producing coated groundwood printing and writing grades (pH 7.9). Samples were dosed with halogen and plated after one and four hours. Following the four-hour sampling, process water was challenged with 1% (volume/volume) of untreated process water and samples were plated again after 24 hours.

[4] = pH after mixing 9.8, recorded 3 minutes after mixing with DPD reagent

[Na+].[O-]Cl [NaOC1, sodium hypochlorite]
Free Halogen (% Yield) [1, 4]: 100 % Yield
Total Halogen (% Yield) [1, 4]: 100 % Yield
Free Halogen (% Yield) ([1]; pH after mixing 13.0): 100 % Yield
Total Halogen (% Yield) ([1]; pH after mixing 13.0): 100 % Yield
Free Halogen (% Yield) ([1]; pH after mixing 13.5): 100 % Yield
Total Halogen (% Yield) ([1]; pH after mixing 13.5): 100 % Yield
Mean Biocidal Concentration S. natans ([2]; contact time 0.5 hours): 5 ppm Total C12
Mean Biocidal Concentration S. natans ([2]; contact time 1 hour): 5 ppm Total C12
Mean Biocidal Concentration S. natans ([2]; contact time 3.5 hours): 5 ppm Total C12
Mean Biocidal Concentration S. natans ([2]; contact time 9 hours): 5 ppm Total C12
Bacterial Density ([3]; 2.5 ppm Total C12, contact time 1 hour): 2 log 10 CFU/mL
Bacterial Density ([3]; 2.5 ppm Total C12, contact time 4 hours): 3.5 log 10 CFU/mL
Bacterial Density ([3]; 2.5 ppm Total C12, contact time 24 hours, after challenge with 1% (v/v) untreated process water at 4 hours): 7.4 log 10 CFU/mL
Bacterial Density ([3]; 10 ppm Total C12, contact time 1 hour): 2 log 10 CFU/mL
Bacterial Density ([3]; 10 ppm Total C12, contact time 4 hours): 2 log 10 CFU/mL
Bacterial Density ([3]; 10 ppm Total C12, contact time 24 hours, after challenge with 1% (v/v) untreated process water at 4 hours): 7.3 log 10 CFU/mL

— US20100119620A1, “SUPPRESSING MICROBIAL GROWTH IN PULP AND PAPER” (priority 2006, published 2010)
